# Values of other authors, collected in patent US20250268834A1, “IONIC LIQUID SALTS OF ACTIVE PHARMACEUTICAL INGREDIENTS” (GlaxoSmithKline Consumer Healthcare Holdings (US) LLC, priority 2021, published 2025).
# Settings: hydrolysis of amide to 4-aminophenol in liquids
compound,measurement,value
"CC(=O)Nc1ccc(O)cc1 [APAP, acetaminophen]",pH with lowest hydrolysis levels of APAP,5-6
